Assay results taken from patent US7316738B2, “Milled submicron chlorothalonil with narrow particle size distribution, and uses thereof” (Phibro-Tech, Inc., priority 2004, dated 2008).
Like-named read-outs stand apart in the source and are kept apart here.

Tests used:
[1] = Particle size (Sedigraph 5100T) of chlorothalonil milled with 0.5–0.6 mm cerium-doped zirconium oxide; assay type: physicochemical
Experimental: The laboratory-sized vertical mill was provided by CB Mills, model# L-3-J. The mill has a 2 liter capacity and is jacketed for cooling. Unless otherwise specified, ambient water was cycled through the mill cooling jacket during operation. The internal dimensions are 3.9″ diameter by 9.1″ height. The mill uses a standard 3×3″ disk agitator (mild steel) on a stainless steel shaft, and it operates at 2,620 rpm.
The media used in this Example was 0.4–0.5 mm zirconium silicate beads supplied by CB Mills. All particle size determinations were made with a Sedigraph™ 5100T manufactured by Micromeritics, which uses x-ray detection and bases calculations of size on Stokes' Law.
The same mill and conditions were used in this experiment as in experiment 1. However, the grinding media was 0.5–0.6 mm cerium-doped zirconium oxide beads obtained from CB Mills. The density of the cerium doped zirconium oxide is ˜6.0 g/cm^3. […] The total batch weight was about 600 g.

[2] = Particle size (Sedigraph 5100T) of chlorothalonil milled with 0.4–0.5 mm zirconium silicate; assay type: physicochemical
[3] = cited from earlier work
[4] = cited from earlier work; remark: listed apart in the source
leafspot infestation = conditions: cited from earlier work; for Def (0.42) defoliation: 0.42 kg chlorothalonil per ha; for Def (0.84) defoliation: 0.84 kg chlorothalonil per ha; for Def (1.26) defoliation: 1.26 kg chlorothalonil per ha
[5] = milling time 0 mins, 0.5–0.6 mm cerium-doped zirconium oxide beads
[6] = milling time 90 mins, 0.5–0.6 mm cerium-doped zirconium oxide beads
[7] = milling time 240 mins, 0.5–0.6 mm cerium-doped zirconium oxide beads
[8] = milling time 0 mins, 0.4–0.5 mm zirconium silicate beads
[9] = milling time 30 mins, 0.4–0.5 mm zirconium silicate beads
[10] = milling time 60 mins, 0.4–0.5 mm zirconium silicate beads
[11] = milling time 90 mins, 0.4–0.5 mm zirconium silicate beads
[12] = milling time 120 mins, 0.4–0.5 mm zirconium silicate beads
[13] = milling time 150 mins, 0.4–0.5 mm zirconium silicate beads
[14] = milling time 180 mins, 0.4–0.5 mm zirconium silicate beads
[15] = milling time 270 mins, 0.4–0.5 mm zirconium silicate beads
[16] = milling time 450 mins, 0.4–0.5 mm zirconium silicate beads
[17] = 0.1 cm zirconium beads, 3000 rpm, 10 minutes, US 2004/0024099
[18] = 0.1 cm zirconia, 70% to 80% loading, 10 minutes, US 2004/0063847, 2003/0040569

Compound: N#Cc1c(Cl)c(Cl)c(Cl)c(C#N)c1Cl [chlorothalonil, 2,4,5,6-tetrachloro-1,3-dicyanobenzene]
- increase in number of particles per unit of mass over the standard products (factor) ([1]; after 90 minutes of milling (first statement)): more than 30
- increase in number of particles per unit of mass over the standard products (factor) ([1]; after 90 minutes of milling (second statement)): more than 1000
- Volume % With Diameter Greater Than 1 μm [1, 5]: 92 Volume %
- Volume % With Diameter Greater Than 2 μm [1, 5]: 77 Volume %
- Volume % With Diameter Greater Than 5 μm [1, 5]: 30 Volume %
- Volume % With Diameter Greater Than 10 μm [1, 5]: 8 Volume %
- Volume % With Diameter Greater Than 0.4 μm [1, 6]: 22 Volume %
- Volume % With Diameter Greater Than 1 μm [1, 6]: 3 Volume %
- Volume % With Diameter Greater Than 2 μm [1, 6]: 3 Volume %
- Volume % With Diameter Greater Than 5 μm [1, 6]: 3 Volume %
- Volume % With Diameter Greater Than 10 μm [1, 6]: 3 Volume %
- d50 [1, 6]: 0.31 μm
- Volume % With Diameter Greater Than 0.2 μm [1, 7]: 51 Volume %
- Volume % With Diameter Greater Than 0.4 μm [1, 7]: 3 Volume %
- Volume % With Diameter Greater Than 1 μm [1, 7]: 3 Volume %
- Volume % With Diameter Greater Than 2 μm [1, 7]: 2 Volume %
- Volume % With Diameter Greater Than 5 μm [1, 7]: 1 Volume %
- Volume % With Diameter Greater Than 10 μm [1, 7]: 0 Volume %
- d50 [1, 7]: 0.21 μm
- d50 ([1]; obtainable in 90 minutes, 0.5 mm zirconia milling media): less than 1 micron
- d90 ([2]; at 60 minutes, 0.4–0.5 mm zirconium silicate media): about 2 microns
- starting particle size ([2]; before wet milling): 3–4 microns
- Volume % With Diameter Greater Than 2 μm [2, 8]: 95 Volume %
- Volume % With Diameter Greater Than 5 μm [2, 8]: 48 Volume %
- Volume % With Diameter Greater Than 10 μm [2, 8]: 10 Volume %
- d50 [2, 8]: 4.9 μm
- Volume % With Diameter Greater Than 1 μm [2, 9]: 68 Volume %
- Volume % With Diameter Greater Than 2 μm [2, 9]: 21 Volume %
- Volume % With Diameter Greater Than 5 μm [2, 9]: 4 Volume %
- Volume % With Diameter Greater Than 10 μm [2, 9]: 0 Volume %
- d50 [2, 9]: 1.3 μm
- Volume % With Diameter Greater Than 1 μm [2, 10]: 50 Volume %
- Volume % With Diameter Greater Than 2 μm [2, 10]: 11 Volume %
- Volume % With Diameter Greater Than 5 μm [2, 10]: 2 Volume %
- Volume % With Diameter Greater Than 10 μm [2, 10]: 4 Volume %
- d50 [2, 10]: 1.0 μm
- Volume % With Diameter Greater Than 1 μm [2, 11]: 94 Volume %
- Volume % With Diameter Greater Than 2 μm [2, 11]: 22 Volume %
- Volume % With Diameter Greater Than 5 μm [2, 11]: 23 Volume %
- Volume % With Diameter Greater Than 10 μm [2, 11]: 18 Volume %
- d50 [2, 11]: 1.4 μm
- Volume % With Diameter Greater Than 2 μm [2, 12]: 4 Volume %
- Volume % With Diameter Greater Than 5 μm [2, 12]: 0 Volume %
- Volume % With Diameter Greater Than 10 μm [2, 12]: 2 Volume %
- Volume % With Diameter Greater Than 1 μm [2, 13]: 58 Volume %
- Volume % With Diameter Greater Than 2 μm [2, 13]: 6 Volume %
- Volume % With Diameter Greater Than 5 μm [2, 13]: 2 Volume %
- Volume % With Diameter Greater Than 10 μm [2, 13]: 0 Volume %
- Volume % With Diameter Greater Than 1 μm [2, 14]: 53 Volume %
- Volume % With Diameter Greater Than 2 μm [2, 14]: 7 Volume %
- Volume % With Diameter Greater Than 5 μm [2, 14]: 2 Volume %
- Volume % With Diameter Greater Than 10 μm [2, 14]: 2 Volume %
- Volume % With Diameter Greater Than 1 μm [2, 15]: 54 Volume %
- Volume % With Diameter Greater Than 2 μm [2, 15]: 8 Volume %
- Volume % With Diameter Greater Than 5 μm [2, 15]: 0 Volume %
- Volume % With Diameter Greater Than 10 μm [2, 15]: 2 Volume %
- Volume % With Diameter Greater Than 1 μm [2, 16]: 56 Volume %
- Volume % With Diameter Greater Than 2 μm [2, 16]: 21 Volume %
- Volume % With Diameter Greater Than 5 μm [2, 16]: 8 Volume %
- Volume % With Diameter Greater Than 10 μm [2, 16]: 12 Volume %
- d50 ([2]; within about one hour, 0.4–0.5 mm zirconium silicate media): ~1 micron
- mean volume diameter (d50) [3, 17]: less than 3 microns
- size that 90% of the number of particles are below [3, 17]: below 0.5 microns
- average particle size of the product ([3]; 40% chlorothalonil, 5.6% zinc oxide formulation, wet mill or high speed media mill, U.S. Pat. No. 5,667,795): 3 microns
- average particle size diameter ([3]; milled with 2 mm glass beads, U.S. Pat. No. 5,360,783 Test 5): 2.3 microns

Compound: N#Cc1c(Cl)c(Cl)c(Cl)c(C#N)c1Cl [Wet, chlorothalonil]
- <1μ, % (percentage of particles with a diameter less than 1 micron) ([4]; 1974 data, wet milled 3 hr): 8%
- med. μ (median diameter in microns) ([4]; 1974 data, wet milled 3 hr): 3.8 microns
- <1μ, % (percentage of particles with a diameter less than 1 micron) ([4]; 1974 data, wet milled 9 hr): 22%
- med. μ (median diameter in microns) ([4]; 1974 data, wet milled 9 hr): 1.75 microns
- <1μ, % (percentage of particles with a diameter less than 1 micron) ([4]; 1974 data, wet milled 13 hr): 24%
- med. μ (median diameter in microns) ([4]; 1974 data, wet milled 13 hr): 1.6 microns
- <1μ, % (percentage of particles with a diameter less than 1 micron) ([4]; 1975 data, wet milled 3 hr): 10%
- med. μ (median diameter in microns) ([4]; 1975 data, wet milled 3 hr): 3.7 microns
- <1μ, % (percentage of particles with a diameter less than 1 micron) ([4]; 1975 data, wet milled >9 hr): 22%
- med. μ (median diameter in microns) ([4]; 1975 data, wet milled >9 hr): 1.6 microns
- Def (0.42) defoliation (leafspot infestation; 1974 data, wet milled 3 hr): 33
- Def (0.84) defoliation (leafspot infestation; 1974 data, wet milled 3 hr): 24
- Def (1.26) defoliation (leafspot infestation; 1974 data, wet milled 3 hr): 15.5
- Def (0.42) defoliation (leafspot infestation; 1974 data, wet milled 9 hr): 32
- Def (0.84) defoliation (leafspot infestation; 1974 data, wet milled 9 hr): 17.2
- Def (1.26) defoliation (leafspot infestation; 1974 data, wet milled 9 hr): 14.1
- Def (0.42) defoliation (leafspot infestation; 1974 data, wet milled 13 hr): 27
- Def (0.84) defoliation (leafspot infestation; 1974 data, wet milled 13 hr): 23
- Def (1.26) defoliation (leafspot infestation; 1974 data, wet milled 13 hr): 15.4
- Def (0.42) defoliation (leafspot infestation; 1975 data, wet milled 3 hr): 35
- Def (0.84) defoliation (leafspot infestation; 1975 data, wet milled 3 hr): 28
- Def (1.26) defoliation (leafspot infestation; 1975 data, wet milled 3 hr): 28
- Def (0.42) defoliation (leafspot infestation; 1975 data, wet milled >9 hr): 32
- Def (0.84) defoliation (leafspot infestation; 1975 data, wet milled >9 hr): 29
- Def (1.26) defoliation (leafspot infestation; 1975 data, wet milled >9 hr): 29

Compound: manganese ethylenebis(dithiocarbamate) [Maneb]
- mean particle diameter ([3]; milled with 2 mm glass beads, U.S. Pat. No. 5,360,783 Example 2): 1.7–1.8 micons

Compound: N#Cc1c(Cl)c(Cl)c(Cl)c(C#N)c1Cl [Air, chlorothalonil]
- <1μ, % (percentage of particles with a diameter less than 1 micron) ([4]; 1974 data, air milled): 7%
- med. μ (median diameter in microns) ([4]; 1974 data, air milled): 3.3 microns
- <1μ, % (percentage of particles with a diameter less than 1 micron) ([4]; 1975 data, air milled): 5%
- med. μ (median diameter in microns) ([4]; 1975 data, air milled): 3.3 microns
- Def (0.42) defoliation (leafspot infestation; 1974 data, air milled): 39
- Def (0.84) defoliation (leafspot infestation; 1974 data, air milled): 25
- Def (1.26) defoliation (leafspot infestation; 1974 data, air milled): 19
- Def (0.42) defoliation (leafspot infestation; 1975 data, air milled): 35
- Def (0.84) defoliation (leafspot infestation; 1975 data, air milled): 34
- Def (1.26) defoliation (leafspot infestation; 1975 data, air milled): 27

Compound: CC1OC(C)OC(C)OC(C)O1 (stereo not shown) [metaldehyde]
- diameter that 90% of the particles are below [3, 18]: less than 2.5 microns
- mean volume diameter [3, 18]: less than 1.5 microns
